The assay concerns the target T1, protein tyrosine phosphatase 1B (PTP1B) (Homo sapiens, UniProt P18031).
T1 sequence (P18031 1-435): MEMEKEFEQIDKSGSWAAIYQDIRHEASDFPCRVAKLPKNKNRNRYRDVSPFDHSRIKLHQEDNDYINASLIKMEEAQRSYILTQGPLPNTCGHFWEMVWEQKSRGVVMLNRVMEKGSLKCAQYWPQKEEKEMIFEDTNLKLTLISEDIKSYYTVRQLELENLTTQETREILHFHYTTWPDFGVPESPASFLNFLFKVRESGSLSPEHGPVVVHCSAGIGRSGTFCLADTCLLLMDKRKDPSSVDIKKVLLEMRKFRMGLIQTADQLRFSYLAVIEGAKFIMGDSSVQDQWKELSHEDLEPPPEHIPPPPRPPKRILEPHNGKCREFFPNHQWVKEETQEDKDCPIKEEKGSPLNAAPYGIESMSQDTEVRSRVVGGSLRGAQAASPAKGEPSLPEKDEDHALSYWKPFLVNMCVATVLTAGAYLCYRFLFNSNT
In words: Assay of PTP1B activity (in vitro enzyme inhibition). To be noted: in vitro PTP1B enzymatic activity; oleanolic acid as positive control; read-out: IC50 ± SD, inhibitory activity against PTP1B. It counts as biochemical. How it is done: The bioassay procedure was the same as that reported previously. The result of PTP1B inhibition was expressed as IC50, which was calculated with Prism 4 software (Graphpad, San Diego, CA).

Consider 6 compounds from article PMC4749519, “Isoprenylated Flavonoids with PTP1B Inhibition from Macaranga denticulata” (Natural Products and Bioprospecting, 2016).

With `CC(C)=CCC/C(C)=C/Cc1c(O)cc2c(c1O)C(=O)C[C@@H](c1ccc(O)cc1)O2` [Compound 9, bonannione A], the IC50 was found to be 14 ± 1.2 µM. The figure for `CC1(C)C=Cc2c(O)cc(O)c(C(=O)/C=C/c3ccccc3)c2O1` [Compound 5, (2E)-1-(5,7-dihydroxy-2,2-dimethyl-2H-benzopyran-8-yl)-3-phenyl-2-propen-1-one] is 19.3 ± 1.4 µM; for `CC(C)=CCC/C(C)=C/Cc1c(O)cc2oc(-c3ccc(O)cc3)c(O)c(=O)c2c1O` [Compound 7, macarangin] it is 22.7 ± 4.6 µM. The figure for `CC1(C)C=Cc2c(O)c(C(=O)/C=C/c3ccc(O)cc3)c3c(c2O1)C=CC(C)(C)O3` [Compound 6, laxichalcone] is 20.7 ± 5.3 µM; for `CC(C)=CCC/C(C)=C/Cc1c(O)cc2c(c1O)C(=O)[C@H](O)[C@@H](c1ccc(O)cc1)O2` [Compound 8, bonanniol A] it is 15.2 ± 2.8 µM. For `COc1ccc(/C=C/C(=O)c2c(O)c(C)c(O)c3c2OC(C)(C)C=C3)cc1` [Compound 4, (2E)-1-(5,7-dihydroxy-2,2,6-trimethyl-2H-benzopyran-8-yl)-3-(4-methoxyphenyl)-2-propen-1-one], the IC50 came out at 48.8 ± 5.5 µM.
